ChEMBL document CHEMBL2163253, “Identification and preliminary characterization of a potent, safe, and orally efficacious inhibitor of acyl-CoA:diacylglycerol acyltransferase 1” (J Med Chem, 2012)

Assays:
[1] = Stability in human liver microsomes assessed as parent compound remaining measured after 60 mins; assay type: ADME, Microsome; settings: read-out: Stability
[2] = biological target: T1, Diacylglycerol O-acyltransferase 1 (Homo sapiens, UniProt O75907); test: biochemical
T1 sequence (O75907 whole entry): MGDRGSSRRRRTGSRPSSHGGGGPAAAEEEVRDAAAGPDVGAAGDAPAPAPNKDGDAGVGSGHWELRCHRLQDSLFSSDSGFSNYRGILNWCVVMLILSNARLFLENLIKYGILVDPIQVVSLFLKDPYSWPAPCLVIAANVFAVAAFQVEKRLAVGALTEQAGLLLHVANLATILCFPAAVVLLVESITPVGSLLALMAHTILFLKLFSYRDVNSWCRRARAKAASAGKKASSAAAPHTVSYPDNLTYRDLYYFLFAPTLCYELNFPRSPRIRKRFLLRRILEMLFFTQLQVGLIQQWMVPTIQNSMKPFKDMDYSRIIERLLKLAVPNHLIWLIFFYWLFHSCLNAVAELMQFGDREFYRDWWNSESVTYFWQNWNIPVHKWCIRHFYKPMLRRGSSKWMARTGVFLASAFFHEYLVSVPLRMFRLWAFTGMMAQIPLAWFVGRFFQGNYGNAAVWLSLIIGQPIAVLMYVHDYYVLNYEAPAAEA
Description: Inhibition of N-terminal His6-tagged human recombinant DGAT1 expressed in insect cell membrane using [1-14C]decanoyl-CoA substrate by phospholipid flash plate assay

Nc1c(-c2ccc(C(=O)O)cc2)cnc2ccnn12
remaining at 1 h [1]: 100% | IC50 [2]: > 10 µM

Nc1c(-c2ccccc2)cnc2ccnn12
IC50 [2]: > 10 µM

Nc1c(-c2ccccc2Br)cnc2ccnn12
remaining at 1 h [1]: 69% | IC50 [2]: > 10 µM

CC(C)(C)c1ccc(-c2cncnc2N)cc1
remaining at 1 h [1]: 73%

CC(C)c1ccc(-c2cnc3ccnn3c2N)cc1
remaining at 1 h [1]: < 5%
